Where “and” joins values, the source holds several entries; their conditions need not be identical. Equal values may be shown once.
Legend:
[1] = test system: hereditary angioneurotic edema; settings: known complement inhibitors; cited from earlier work
complements = settings: cited from earlier work
plasmin = settings: cited from earlier work
complement = experiment: Anticomplementary activity: inhibition of hemolysis of sensitized erythrocytes (EA); assay type: biochemical, guinea pig; settings: for Anticomplementary Activity (50% hemolysis inhibitory activity value): guinea pig complement serum diluted 150 times, 60 minutes
Description: The anticomplementary activity of the test compounds above was measured and confirmed by the testing method described in Meneki Kagaku (Immuno-Chemistry), Yuichi Yamamura et al., Ed. Asakura Shoten, Tokyo, Japan (1973) pages 830-834. Specifically, a test tube was charged with 0.5 ml of an aqueous dispersion of each of the test compounds, 0.5 ml of sensitized erythrocytes (EA) containing 1×10^8 cells/ml, 1 ml of a 5-fold diluted solution of a Veronal buffer solution containing isotonic gelatin (This 5-fold diluted solution is termed GVB^++ for brevity), and 0.5 ml of complement serum (guinea pig complement) diluted 150 times with the GVB^++. The mixture was maintained for 60 minutes. Then, 5 ml of an ice-fold physiological saline solution was added thereto and the mixture was centrifuged.

Kallikrein = settings: cited from earlier work
[2] = Acute toxicity (LD50) in mice; assay type: in vivo; settings: mouse, in vivo, intravenous administration
Description: (§1) The actute toxicity (LD50 mg/kg) of the test compounds was determined on mice by intraperitoneal administration in the case of Compound A and intravenous administration in the case of Compound B.

thrombin = settings: cited from earlier work
urokinase = settings: cited from earlier work
[3] = test system: Nephrotoxin-Type Nephritis; experiment: Therapeutic effect on nephrotoxin-type nephritis: proteinuria level; assay type: in vivo, male Wistar rats; settings: for Proteinuria Level, Average: 3 mg/body i.p. for seven days; for Proteinuria Level: 3 mg/body i.p. once every 24 hours for seven days, individual rat, listed as Compound of Invention
Description: Rat nephrotoxin ("NT" for brevity) was obtained as described below.
Rat kidney cortex was homogenized with an equal quantity of physiological saline. The homogenized mixture was mixed with Freund's complete adjuvant (a product of Difco Company) in a volume ratio of 1:1. 2 ml of the resulting mixture was intramuscularly injected into a rabbit (body weight 3,100 g) to immunize the rabbit. A month and a half later, blood was taken from the heart of the rabbit and serum was obtained. The resulting serum was inactivated at 56° C. for 30 minutes, then salted out with a 40% saturated aqueous solution of ammonium sulfate, and fractionated. The γ-globulin (IgG) fraction was collected to obtain NT.
The therapeutic evaluation was carried out using male Wistar rats with a body weight of 150 to 160 g with three replications for each test compound. The test compound was intraperitoneally administered once every 24 hours for seven days. One hour after the administration of the test compound on the third day, the NT was applied. The NT was intravenously injected in an amount of 1 ml at a tail vein of each rat. Physiological saline solution was used as a control.
The proteinuria level (total amount excreted into the urine over a 24 hour period) was measured using turbidometry employing bovine serum albumin as a control by means of sulfosalicylic acid.

mice = experiment: Acute toxicity (LD50) in mice; assay type: in vivo; settings: intraperitoneal administration
Description: as §1

Heymann-Type Nephritis = experiment: Therapeutic effects on Heymann-type nephritis: proteinuria level; assay type: in vivo, Male Wistar rats; settings: for Proteinuria Level: individual rat, listed as Compound of Invention
Description: Male Wistar rats with a body weight of 180 to 200 g were used in the test. Rat kidney cortex was extracted, and homogenized with an equal quantity by volume of a physiological saline solution. The homogenate was centrifuged at 1,500 G for 1 hour. The supernatant liquid was purified in accordance with the method of T. S. Edgington et al., Journal of Experimental Medicine, 127, 555 (1968), and mixed with Freund's complete adjuvant 37 Ra (a product of Difco Company) in a volume ratio of 0.4:1. The resulting mixture was injected intraperitoneally into isologous rats in an amount of 0.5 ml per rat. And then the same amount of its mixture was administered every 2 weeks until the proteinuria level exceeded 100 mg/day. (This period was about 6 to 8 weeks.)
Each of the test compounds was intraperitoneally administered to the rats affected with Heymann-type nephritis (with a body weight of 300 to 350 g) once a day for 7 days, and then the amount of proteinuria (mg/day) was measured in the same manner as described above. Physiological saline solution was used as a control.

Compound: NC[C@H]1CC[C@H](C(=O)O)CC1 [tranexamic acid]
- use in the treatment of hereditary angioneurotic edema [1]: used with success

Compound: NCCCCCC(=O)O [epsilon-aminocaproic acid]
- use in the treatment of hereditary angioneurotic edema [1]: used with success

Compound: CC1(C)[C@@H](O[C@H]2O[C@H](C(=O)O)[C@@H](O)[C@H](O)[C@H]2O[C@@H]2O[C@H](C(=O)O)[C@@H](O)[C@H](O)[C@H]2O)CC[C@]2(C)[C@H]3C(=O)C=C4[C@@H]5C[C@@](C)(C(=O)O)CC[C@]5(C)CC[C@@]4(C)[C@]3(C)CC[C@@H]12 [Compound B, Glycyrrhizin]
- inhibitory activity against complements (complements): inhibitory activity
- inhibitory activity against plasmin (plasmin): inhibitory activity
- Anticomplementary Activity (50% hemolysis inhibitory activity value) (complement): 500-1,000 γ/ml
- inhibitory activity against Kallikrein (Kallikrein): inhibitory activity
- LD50 [2]: > 300 mg/kg
- inhibitory activity against thrombin (thrombin): inhibitory activity
- inhibitory activity against urokinase (urokinase): inhibitory activity

Compound: Cc1ccc(C(=O)Nc2ccc(S(=O)(=O)O)c3cc(S(=O)(=O)O)cc(S(=O)(=O)O)c23)cc1NC(=O)c1cccc(NC(=O)Nc2cccc(C(=O)Nc3cc(C(=O)Nc4ccc(S(=O)(=O)O)c5cc(S(=O)(=O)O)cc(S(=O)(=O)O)c45)ccc3C)c2)c1 [Suramin Sodium]
- use in the treatment of hereditary angioneurotic edema [1]: used with success

Compound: CC1(C)C[C@@H](O)[C@]2(C)CC[C@]3(C)C(=CC[C@@H]4[C@@]5(C)CC[C@H](O[C@@H]6O[C@H](C(=O)O)[C@@H](O)[C@H](O)[C@H]6O)[C@@](C)(CO)[C@@H]5CC[C@]43C)[C@@H]2C1 [Compound A, 3-O-(β-D-glucuronopyranosyl)-soyasapogenol B]
- Proteinuria Level, Average ([3]; Day 1, average of 3 rats (control 15)): 3.2 mg/day
- Proteinuria Level ([3]; Day 1): 1.9 mg/day and 5.3 mg/day and 2.5 mg/day
- Proteinuria Level, Average ([3]; Day 4, average of 3 rats (control 20)): 2.3 mg/day
- Proteinuria Level ([3]; Day 4): 1.2 mg/day and 2.9 mg/day and 2.7 mg/day
- Proteinuria Level, Average ([3]; Day 7, average of 3 rats (control 23)): 1.3 mg/day
- Proteinuria Level ([3]; Day 7): 0.9 mg/day and 1.8 mg/day and 1.1 mg/day
- Proteinuria Level, Average ([3]; Day 10, average of 3 rats (control 33)): 9.7 mg/day
- Proteinuria Level ([3]; Day 10): 7 mg/day and 13 mg/day and 9 mg/day
- anticomplementary activity (in words) (complement): potent anticomplementary activity
- Anticomplementary Activity (50% hemolysis inhibitory activity value) (complement): 5 µg/mL
- Acute Toxicity LD50 (mice): Above 300 mg/kg
- Proteinuria Level, Average (Heymann-Type Nephritis; Before Administration, 3 mg/body i.p. group, average of 3 rats (control 129)): 123 mg/day
- Proteinuria Level (Heymann-Type Nephritis; Before Administration, 3 mg/body i.p. group): 117 mg/day and 129 mg/day and 123 mg/day
- Proteinuria Level, Average (Heymann-Type Nephritis; Day 1, 3 mg/body i.p. once a day for 7 days, average of 3 rats (control 116)): 112 mg/day
- Proteinuria Level (Heymann-Type Nephritis; Day 1, 3 mg/body i.p. once a day for 7 days): 89 mg/day and 127 mg/day and 119 mg/day
- Proteinuria Level, Average (Heymann-Type Nephritis; Day 4, 3 mg/body i.p. once a day for 7 days, average of 3 rats (control 131)): 58 mg/day
- Proteinuria Level (Heymann-Type Nephritis; Day 4, 3 mg/body i.p. once a day for 7 days): 42 mg/day and 75 mg/day and 58 mg/day
- Proteinuria Level, Average (Heymann-Type Nephritis; Day 7, 3 mg/body i.p. once a day for 7 days, average of 3 rats (control 122)): 28 mg/day
- Proteinuria Level (Heymann-Type Nephritis; Day 7, 3 mg/body i.p. once a day for 7 days): 27 mg/day and 39 mg/day and 18 mg/day
- Proteinuria Level, Average (Heymann-Type Nephritis; Day 14, 3 mg/body i.p. once a day for 7 days, average of 3 rats (control 119)): 3 mg/day
- Proteinuria Level (Heymann-Type Nephritis; Day 14, 3 mg/body i.p. once a day for 7 days): 3 mg/day and 17 mg/day and 9 mg/day
- Proteinuria Level, Average (Heymann-Type Nephritis; Day 21, 3 mg/body i.p. once a day for 7 days, average of 3 rats (control 109)): 9 mg/day
- Proteinuria Level (Heymann-Type Nephritis; Day 21, 3 mg/body i.p. once a day for 7 days): 8 mg/day and 13 mg/day and 7 mg/day

From patent US4217345A, “3-0-(β-D-Glucuronopyranosyl)-soyasapogenol B” (Otsuka Pharmaceutical Co., Ltd., priority 1978, dated 1980)
